Test system: Plasmodium berghei
Assay: Luciferase/luciferin-expressing antifolate-resistant parasites were used to infect a culture of HepG2 cells that were pre-incubated with compounds. Infected hepatocytes emit light due to the luciferase reaction. Assay results are presented as the percent inhibition of light emission compared to control. […]
Assay type: functional
Settings: sporozoite; for IC90: read-out: LUCIFERASE INFECTION ASSAY - IC90

| SMILES | IC90 [µM] | other results |
| --- | --- | --- |
| Cc1ccc(C(=O)Nc2nc(-c3ccccn3)cs2)cc1S(=O)(=O)N1CCOCC1 | 9.81 | IC50 (HEPG2TOX_HILL_SLOPE 1.67, HEPG2TOX_R_SQUARED 0.851, PBLUC_HILL_SLOPE 9.71, PBLUC_R_SQUARED 0.0304, read-out: LUCIFERASE INFECTION ASSAY - IC50): 7.83 µM |
| COc1ccc(-c2csc3ncnc(Sc4nnc(-c5cccc(C)c5)n4CC(N)=O)c23)cc1 | 2.23 | IC50 (HEPG2TOX_HILL_SLOPE 1.67, 2.83, HEPG2TOX_R_SQUARED 0.956, 0.971, PBLUC_HILL_SLOPE 8.88, 0.995, PBLUC_R_SQUARED 0.771, 0.637, read-out: LUCIFERASE INFECTION ASSAY - IC50): 0.702 µM |
| CNc1snc(C)c1C(=O)NCc1csc(-c2ccccc2)n1 | 4.69 | IC50 (HEPG2TOX_HILL_SLOPE 1.65, HEPG2TOX_R_SQUARED 0.956, PBLUC_HILL_SLOPE 1.96, PBLUC_R_SQUARED 0.757, read-out: LUCIFERASE INFECTION ASSAY - IC50): 1.53 µM |
| CNc1nc2cnc(Nc3cccc(Cl)c3)cc2n1Cc1ccco1 | > 10 | IC50 (HEPG2TOX_HILL_SLOPE 1.66, HEPG2TOX_R_SQUARED 0.976, PBLUC_HILL_SLOPE 2.05, PBLUC_R_SQUARED 0.683, read-out: LUCIFERASE INFECTION ASSAY - IC50): 3.63 µM |
| COc1ccc(NS(=O)(=O)c2cc(NC(=O)c3ccsc3)ccc2Cl)cc1 | 0.419 | IC50 (HEPG2TOX_HILL_SLOPE 1.65, HEPG2TOX_R_SQUARED 0.932, PBLUC_HILL_SLOPE 10.6, PBLUC_R_SQUARED 0.586, read-out: LUCIFERASE INFECTION ASSAY - IC50): 0.34 µM |
| N#C/C(=N\Nc1cccc(C(F)(F)F)c1)C(=O)C1CC1 | 10.7 | IC50 (HEPG2TOX_HILL_SLOPE 1.67, HEPG2TOX_R_SQUARED 0.925, PBLUC_HILL_SLOPE 4.09, PBLUC_R_SQUARED 0.467, read-out: LUCIFERASE INFECTION ASSAY - IC50): 6.27 µM |
| COc1ccc(C(=O)NN(C)c2nc3ccccc3nc2C(F)(F)F)cc1 | 4.32 | IC50 (HEPG2TOX_HILL_SLOPE 1.65, HEPG2TOX_R_SQUARED 0.987, PBLUC_HILL_SLOPE 2.07, PBLUC_R_SQUARED 0.843, read-out: LUCIFERASE INFECTION ASSAY - IC50): 1.49 µM |
| COc1ccc(-n2nc(C)c3c2NC(=O)CC3c2ccc3c(c2)OCO3)cc1 (configuration not stated) | > 8.74 | IC50 (HEPG2TOX_HILL_SLOPE 1.66, HEPG2TOX_R_SQUARED 0.931, PBLUC_HILL_SLOPE 1.06, PBLUC_R_SQUARED 0.555, read-out: LUCIFERASE INFECTION ASSAY - IC50): 1.33 µM |
| CCNc1ccc(S(=O)(=O)C(F)(F)F)cc1NC(=O)/C=C/c1ccc(OC)c(OC)c1 | > 10 | IC50 (HEPG2TOX_HILL_SLOPE 1.67, 1.94, HEPG2TOX_R_SQUARED 0.906, 0.973, PBLUC_HILL_SLOPE 2.77, PBLUC_R_SQUARED 0.318, read-out: LUCIFERASE INFECTION ASSAY - IC50): 7.07 µM |
| Cc1nn(Cc2ccccc2)c(Cl)c1C(=O)Nc1nnc(-c2ccccc2)o1 | 4.08 | IC50 (HEPG2TOX_HILL_SLOPE 1.65, HEPG2TOX_R_SQUARED 0.7, PBLUC_HILL_SLOPE 2.41, 3.47, PBLUC_R_SQUARED 0.702, 0.681, read-out: LUCIFERASE INFECTION ASSAY - IC50): 1.84 µM |
| CC(=O)c1c(C)[nH]c(C(=O)OCC(=O)/C=C2\N(C)c3ccccc3C2(C)C)c1C | > 10 | IC50 (HEPG2TOX_HILL_SLOPE 1.65, HEPG2TOX_R_SQUARED 0.38, PBLUC_HILL_SLOPE 17.8, PBLUC_R_SQUARED 0.202, read-out: LUCIFERASE INFECTION ASSAY - IC50): 9.63 µM |
| CC(C)C(Nc1ccc(C(F)(F)F)cc1Cl)C(=O)Nc1ccc(-n2cncn2)nc1 (configuration not stated) | > 10 | IC50 (HEPG2TOX_HILL_SLOPE 1.66, HEPG2TOX_R_SQUARED 0.94, PBLUC_HILL_SLOPE 0.872, PBLUC_R_SQUARED 0.779, read-out: LUCIFERASE INFECTION ASSAY - IC50): 2.14 µM |
| CC(C)c1cccc(NS(=O)(=O)c2c[nH]c(C(=O)N3CCCC3)c2)c1 | > 10 | IC50 (HEPG2TOX_HILL_SLOPE 1.65, HEPG2TOX_R_SQUARED 0.259, read-out: LUCIFERASE INFECTION ASSAY - IC50): > 10 µM |
| Cc1ccc(-n2c(C)cc(C(=O)COC(=O)c3[nH]nc4ccccc34)c2C)cc1 | > 10 | IC50 (HEPG2TOX_HILL_SLOPE 1.65, HEPG2TOX_R_SQUARED 0.879, read-out: LUCIFERASE INFECTION ASSAY - IC50): > 10 µM |
| CCn1c2ccccc2c2cc(NC(=O)C3CCCN(c4ncccn4)C3)ccc21 (configuration not stated) | 2.28 | IC50 (HEPG2TOX_HILL_SLOPE 1.64, HEPG2TOX_R_SQUARED 0.977, PBLUC_HILL_SLOPE 1.41, PBLUC_R_SQUARED 0.865, read-out: LUCIFERASE INFECTION ASSAY - IC50): 0.477 µM |
| COc1cccc(-c2nc(-c3ccc(O)cc3O)cs2)c1OC | > 10 | IC50 (HEPG2TOX_HILL_SLOPE 1.65, HEPG2TOX_R_SQUARED 0.767, read-out: LUCIFERASE INFECTION ASSAY - IC50): > 10 µM |

| SMILES | IC90 [µM] | other results |
| --- | --- | --- |
| O=C(c1ccco1)N1CCc2nc(NCc3cccc(Oc4ccccc4)c3)ncc2C1 | 2.99 | IC50 (HEPG2TOX_HILL_SLOPE 1.64, HEPG2TOX_R_SQUARED 0.989, PBLUC_HILL_SLOPE 13.2, PBLUC_R_SQUARED 0.473, read-out: LUCIFERASE INFECTION ASSAY - IC50): 2.53 µM |
| O=C1CSC(=N/N=C2\SC(CC(=O)Nc3ccc(Br)cc3)C(=O)N2Cc2ccco2)N1 (configuration not stated) | > 10 | IC50 (HEPG2TOX_HILL_SLOPE 1.67, HEPG2TOX_R_SQUARED 0.878, PBLUC_HILL_SLOPE 0.95, PBLUC_R_SQUARED 0.607, read-out: LUCIFERASE INFECTION ASSAY - IC50): 5.04 µM |
| Cc1cc(O)cc2c1C(=O)/C(=C/c1cc(Cl)cc3c1OCOC3)O2 | > 9.57 | IC50 (HEPG2TOX_HILL_SLOPE 1.65, HEPG2TOX_R_SQUARED 0.863, PBLUC_HILL_SLOPE 8.6, PBLUC_R_SQUARED 0.504, read-out: LUCIFERASE INFECTION ASSAY - IC50): 8.66 µM |
| CC(NC(=O)Cc1ccc(-c2ccccc2)cc1)c1cccs1 (configuration not stated) | 9.4 | IC50 (HEPG2TOX_HILL_SLOPE 1.66, HEPG2TOX_R_SQUARED 0.927, PBLUC_HILL_SLOPE 1.26, PBLUC_R_SQUARED 0.823, read-out: LUCIFERASE INFECTION ASSAY - IC50): 1.64 µM |
| COc1cc(/C=C(\C#N)c2ccc(C)cc2)cc(OC)c1OC | 4.54 | IC50 (HEPG2TOX_HILL_SLOPE 1.64, HEPG2TOX_R_SQUARED 0.962, PBLUC_HILL_SLOPE 4.59, PBLUC_R_SQUARED 0.528, read-out: LUCIFERASE INFECTION ASSAY - IC50): 2.82 µM |
| Cc1cc(C)n(-c2ccc(CN3c4ccc(S(N)(=O)=O)cc4CC3C)cc2)n1 (configuration not stated) | 1.54 | IC50 (HEPG2TOX_HILL_SLOPE 1.67, HEPG2TOX_R_SQUARED 0.825, PBLUC_HILL_SLOPE 15.8, PBLUC_R_SQUARED 0.537, read-out: LUCIFERASE INFECTION ASSAY - IC50): 1.34 µM |
| CCOc1ccc(CCC2CCN(C(=O)Cn3c(=O)[nH]c(=O)c4ccccc43)CC2)cc1 | > 10 | IC50 (HEPG2TOX_HILL_SLOPE 1.65, HEPG2TOX_R_SQUARED 0.957, PBLUC_HILL_SLOPE 2.43, PBLUC_R_SQUARED 0.244, read-out: LUCIFERASE INFECTION ASSAY - IC50): 5.37 µM |
| COc1cccc(Nc2ncc(C(=O)c3cccc(-c4cccnc4)c3)[nH]2)c1 | 0.376 | IC50 (HEPG2TOX_HILL_SLOPE 1.65, HEPG2TOX_R_SQUARED 0.891, PBLUC_HILL_SLOPE 14.3, PBLUC_R_SQUARED 0.795, read-out: LUCIFERASE INFECTION ASSAY - IC50): 0.322 µM |
| COc1ccc(-c2cc(NS(=O)(=O)c3cccc(F)c3)n(-c3ccc(Cl)c(Cl)c3)n2)cc1 | > 6.7 | IC50 (HEPG2TOX_HILL_SLOPE 1.65, HEPG2TOX_R_SQUARED 0.946, PBLUC_HILL_SLOPE 2.05, PBLUC_R_SQUARED 0.116, read-out: LUCIFERASE INFECTION ASSAY - IC50): 2.95 µM |
| COc1ccc(CNc2nc3cnc(Nc4cccc(Cl)c4)cc3n2C)cc1OC | 3.92 | IC50 (HEPG2TOX_HILL_SLOPE 1.65, HEPG2TOX_R_SQUARED 0.962, PBLUC_HILL_SLOPE 14.9, PBLUC_R_SQUARED 0.209, read-out: LUCIFERASE INFECTION ASSAY - IC50): 3.38 µM |
| Cc1cc(NC(=O)c2cc(-c3ccc(Br)cc3)nc3ccccc23)n(-c2ccc([N+](=O)[O-])cc2)n1 | 1.17 | IC50 (HEPG2TOX_HILL_SLOPE 1.65, HEPG2TOX_R_SQUARED 0.917, PBLUC_HILL_SLOPE 13.2, PBLUC_R_SQUARED 0.485, read-out: LUCIFERASE INFECTION ASSAY - IC50): 0.991 µM |
| CCOc1ccc(S(=O)(=O)N(Cc2nnc(-c3cccs3)o2)c2ccccc2OC)cc1 | > 10 | IC50 (HEPG2TOX_HILL_SLOPE 1.67, HEPG2TOX_R_SQUARED 0.357, PBLUC_HILL_SLOPE 2.18, PBLUC_R_SQUARED 0.1, read-out: LUCIFERASE INFECTION ASSAY - IC50): 6.59 µM |
| COc1ccc(CC(=O)N2CCN(C)c3nc4ccccc4nc32)cc1F | 9.57 | IC50 (HEPG2TOX_HILL_SLOPE 1.64, HEPG2TOX_R_SQUARED 0.943, PBLUC_HILL_SLOPE 1.87, PBLUC_R_SQUARED 0.437, read-out: LUCIFERASE INFECTION ASSAY - IC50): 2.96 µM |
| COc1ccc(N(CC(=O)Nc2ccc(Cl)cc2Cl)S(=O)(=O)c2cccs2)cc1 | 3.69 | IC50 (HEPG2TOX_HILL_SLOPE 1.66, HEPG2TOX_R_SQUARED 0.962, PBLUC_HILL_SLOPE 19.1, PBLUC_R_SQUARED 0.554, read-out: LUCIFERASE INFECTION ASSAY - IC50): 3.29 µM |
| Cn1ccnc1C(=O)NNc1ncc(C(F)(F)F)cc1Cl | 1.21 | IC50 (HEPG2TOX_HILL_SLOPE 1.64, HEPG2TOX_R_SQUARED 0.948, PBLUC_HILL_SLOPE 15.2, PBLUC_R_SQUARED 0.698, read-out: LUCIFERASE INFECTION ASSAY - IC50): 1.04 µM |

From ChEMBL document CHEMBL4483862, “Open-source discovery of chemical leads for next-generation chemoprotective antimalarials” (2018)
